Data taken from ChEMBL document CHEMBL1136094, “Novel, potent and selective cyclin D1/CDK4 inhibitors: indolo[6,7-a]pyrrolo[3,4-c]carbazoles” (Bioorg Med Chem Lett, 2003).
≈ marks a conversion by molar mass, not a printed value. Where “and” joins values, the source holds several entries; their conditions need not be identical. Equal entries are not always repeated.

How the values were obtained:
[1] = target: Cyclin-dependent kinase 4 (Homo sapiens) (UniProt P11802); assay: Inhibition of Rb phosphorylation at the CDK4 specific Ser780 residue (1 fold increase over control) after 24 hr incubation in HCT116 cells; type: functional, cell-based; details: HCT-116, concentration not given here
[2] = target: Cyclin-dependent kinase 4 (Homo sapiens) (UniProt P11802); assay: Inhibition of Rb phosphorylation at the CDK4 specific Ser780 residue (3 fold increase over control) after 24 hr incubation in HCT116 cells; type: functional, cell-based; details: HCT-116, concentration not given here
[3] = target: T1, Cyclin-dependent kinase 4/cyclin D1 (Homo sapiens, UniProt P11802); assay: Inhibitory activity against Cyclin D1-cyclin-dependent kinase 4 in enzymatic assay by measuring phosphorylation of Rb21; type: protein-complex assay
[4] = target: cAMP-dependent protein kinase (PKA) (Homo sapiens, UniProt P22694+P17612+P22612); assay: Inhibitory activity against Protein kinase A (Histone); type: protein assay
CaM kinase II = CaM kinase II (Homo sapiens, UniProt Q13557+Q13555+Q13554+Q9UQM7); assay: Inhibitory activity against Calcium/calmodulin-dependent protein kinase type II; type: protein assay
[5] = target: Cyclin-dependent kinase 2/cyclin E (Homo sapiens, UniProt P24941); assay: Inhibitory activity against Cyclin E-cyclin-dependent kinase 2 in enzymatic assay by measuring phosphorylation of RbING; type: protein-complex assay
HCT-116 [6] = assay: In vitro antiproliferative activity against human carcinoma cell line HCT116 (colon); type: functional, cell-based
[7] = target: T1, Cyclin-dependent kinase 4/cyclin D1; assay: Inhibitory activity against Cyclin D1-cyclin-dependent kinase 4 in enzymatic assay by measuring phosphorylation of RbING; type: protein-complex assay
NCI-H460 = assay: In vitro antiproliferative activity against human carcinoma cell line H460 (lung); type: functional, cell-based
HCT-116 [8] = assay: GI arrest (1 fold increase over control) in HCT116 cells was determined by flow cytometry after 24 hr incubation; type: functional, Homo sapiens
HCT-116 [9] = assay: GI arrest (3 fold increase over control) in HCT116 cells was determined by flow cytometry after 24 hr incubation; type: functional, Homo sapiens
[10] = Aqueous solubility (in situ) in D5W after 1 week was determined; type: physicochemical; details: for solubility at 168 h: D5W
HCT-116 [11] = assay: Flow cytometry of HCT116 cells, G1 arrest (2.6 fold increase over control) after 24 hr r; type: functional, Homo sapiens
[12] = target: Cyclin-dependent kinase 4 (Homo sapiens) (UniProt P11802); assay: Inhibition of Cyclin-dependent kinase 4 specific Ser780 Rb phosphorylation, 3 fold increase over 24 hr incubation in HCT116 cells; type: functional, cell-based; details: HCT-116; concentration not given here
HCT-116 [13] = assay: Flow cytometry of HCT116 cells, G1 arrest (3 fold increase over control) after 24 hr r; type: functional
[14] = target: Cyclin-dependent kinase 2/cyclin E1 (Homo sapiens, UniProt P24941); assay: Inhibition of RbING phosphorylation by Cyclin E1-cyclin-dependent kinase 2; type: protein-complex assay

T1 sequence (P11802 whole entry): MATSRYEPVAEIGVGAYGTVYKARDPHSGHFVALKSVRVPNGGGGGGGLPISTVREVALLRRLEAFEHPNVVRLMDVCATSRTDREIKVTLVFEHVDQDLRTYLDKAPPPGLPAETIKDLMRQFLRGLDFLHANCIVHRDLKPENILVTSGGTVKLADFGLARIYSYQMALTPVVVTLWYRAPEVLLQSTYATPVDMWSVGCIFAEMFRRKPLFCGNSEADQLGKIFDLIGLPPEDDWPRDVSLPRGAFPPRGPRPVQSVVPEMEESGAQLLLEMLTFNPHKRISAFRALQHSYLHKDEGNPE
T1 sequence (P24385 whole entry, further chain): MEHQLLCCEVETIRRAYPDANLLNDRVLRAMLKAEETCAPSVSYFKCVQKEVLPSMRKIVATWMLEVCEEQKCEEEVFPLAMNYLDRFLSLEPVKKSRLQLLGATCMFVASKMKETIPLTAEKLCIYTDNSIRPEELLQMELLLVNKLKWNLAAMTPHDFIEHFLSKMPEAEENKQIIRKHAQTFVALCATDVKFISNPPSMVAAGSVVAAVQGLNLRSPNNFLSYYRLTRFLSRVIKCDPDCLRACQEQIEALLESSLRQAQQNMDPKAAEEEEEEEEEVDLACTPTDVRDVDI
Cyclin-dependent kinase 4 (Homo sapiens), sequence (P11802 whole entry): as the sequence (P11802 whole entry) above

Compound | inhibition [1] | inhibition [2] | IC50 [3] [nM] | IC50 [4] [nM] | IC50 (CaM kinase II) [nM] | IC50 [5] [nM] | IC50 (HCT-116 [6]) [nM] | IC50 [7] [nM] | IC50 (NCI-H460) [nM] | Fold increase (HCT-116 [8]) | Fold increase (HCT-116 [9]) | solubility at 168 h [10] [µg/mL] | Fold increase (HCT-116 [11]) | inhibition [12] [%] | Fold increase (HCT-116 [13]) | Solubility ([10]; buffer, 168 h) [µg/mL] | IC50 [14] [nM]
Cn1ccc2ccc3c4[nH]c5c(CCN6CCC(O)CC6)cccc5c4c4c(c3c21)C(=O)NC4=O [listing 1 of 2 here] | 68% | 69% |  |  |  |  |  |  |  |  |  |  |  |  |  |  | 
Cn1ccc2ccc3c4[nH]c5c(CCN[C@H]6CC[C@H](O)CC6)cccc5c4c4c(c3c21)C(=O)NC4=O | 78% | 87% | 5 | 9810 | 49 | 450 | 1230 | 53 | 2820 | 2 |  |  |  |  |  |  | 
Cn1ccc2ccc3c4[nH]c5cc(O)ccc5c4c4c(c3c21)C(=O)NC4=O | 37% | 95% | 9 | 2350 |  |  | 670 | 33 | 1080 | 2.2 |  |  |  |  |  |  | 
COc1cc2ccn(C)c2c2c3c(c4c5ccccc5[nH]c4c12)C(=O)NC3=O | 56% | 77% | 18 |  |  | 67 | 1900 | 32 | 690 | 1.8 | 2.1 |  |  |  |  |  | 
Cn1ccc2ccc3c4[nH]c5c(CCN6CCOCC6)cccc5c4c4c(c3c21)C(=O)NC4=O [listing 1 of 2 here] | 57% and 69% | 88% and 80% |  |  |  |  |  |  |  |  |  |  |  |  |  |  | 
Cn1ccc2ccc3c4[nH]c5c(CCN6CCC[C@H]6CO)cccc5c4c4c(c3c21)C(=O)NC4=O.O=C(O)C(F)(F)F |  |  |  |  |  |  |  |  |  | 1.5 |  |  |  |  |  |  | 
COc1ccc2c3c4c(c5c(ccc6ccn(C)c65)c3n(CCCNCCO)c2c1)C(=O)NC4=O | 57% | 78% | 28 | 3150 | 732 | 432 | 1550 | 72 | 1280 | 1.8 | 2.7 | 8600 (≈ 18.3 mM) |  |  |  |  | 
Cn1ccc2ccc3c4[nH]c5c(CCN6CCC[C@H]6CO)cccc5c4c4c(c3c21)C(=O)NC4=O | 65% | 73% |  |  |  |  |  |  |  |  |  |  |  |  |  |  | 
COc1ccc2c3c4c(c5c(ccc6ccn(C)c65)c3n(CCCN3CCC(C(N)=O)CC3)c2c1)C(=O)NC4=O | 58% | 67% | 13 | 3380 | 3050 | 1000 | 1960 | 77 | 2440 | 1.9 |  |  | 2.5 |  |  |  | 
COc1ccc2c3c4c(c5c(ccc6ccn(C)c65)c3n(CCCO)c2c1)C(=O)NC4=O | 66% | 95% | 12 | 1040 |  | 113 | 1620 | 54 | 500 | 2.4 |  |  |  |  |  |  | 
COc1ccc2c3c4c(c5c(ccc6ccn(C)c65)c3n(CCNCCO)c2c1)C(=O)NC4=O | 71% | 92% | 21 | 3740 | 527 | 89 | 1470 | 35 | 1310 | 3.1 |  | 6000 (≈ 13.1 mM) |  |  |  |  | 
Cn1ccc2ccc3c4[nH]c5c(CCN6CCSCC6)cccc5c4c4c(c3c21)C(=O)NC4=O |  |  | 24 | > 20000 | 403 | 1800 | 3410 | 82 | 3410 |  |  |  |  |  |  |  | 
Cn1ccc2ccc3c4[nH]c5c(CCN6CCCCC6)cccc5c4c4c(c3c21)C(=O)NC4=O | 69% | 78% |  | 9140 | 62 | 1060 | 2120 | 45 | 2470 | 1.8 | 2.1 | 8500 (≈ 18.9 mM) |  |  |  |  | 
Cn1ccc2ccc3c4[nH]c5c(CCNCCO)cccc5c4c4c(c3c21)C(=O)NC4=O |  |  | 10 | 6120 | 95 | 265 | 170 | 33 | 330 |  |  |  |  |  |  |  | 
Cn1ccc2ccc3c4[nH]c5c(CCN6CCOCC6)cccc5c4c4c(c3c21)C(=O)NC4=O [listing 2 of 2 here] |  |  | 15 | > 20000 | 177 | 1280 | 1630 | 54 | 1910 | 1.5 | 2.2 | 8700 (≈ 19.2 mM) |  |  |  |  | 
COc1ccc2c3c4c(c5c(ccc6ccn(C)c65)c3n(CCCN3CCSCC3)c2c1)C(=O)NC4=O |  |  | 47 | > 20000 | > 20000 | 1260 | 2020 | 190 | 2110 |  |  |  |  |  |  |  | 
Cn1ccc2ccc3c4[nH]c5c(CCN6CCC(O)CC6)cccc5c4c4c(c3c21)C(=O)NC4=O [listing 2 of 2 here] |  |  | 8 | 2990 | 46 | 978 | 200 | 45 | 140 |  |  |  |  |  |  |  | 
COc1ccc2c3c4c(c5c(ccc6ccn(C)c65)c3n(CCCN3CCC(O)CC3)c2c1)C(=O)NC4=O |  |  | 4 | 2810 | 3130 | 2100 | 1260 | 48 | 1130 |  |  |  |  |  |  |  | 
COc1ccc2c3c4c(c5c(ccc6ccn(C)c65)c3n(CCN3CCCCC3)c2c1)C(=O)NC4=O |  |  | 33 | > 20000 | > 20000 | 928 | 3740 | 135 | 2470 |  |  |  |  |  |  |  | 
Cl.Cn1ccc2ccc3c4[nH]c5c(CCN6CCOCC6)cccc5c4c4c(c3c21)C(=O)NC4=O |  |  |  |  |  |  |  |  |  | 1.2 | 2.3 |  |  |  |  |  | 
CCN(CC)CCCc1cccc2c1[nH]c1c3ccc4ccn(C)c4c3c3c(c21)C(=O)NC3=O |  |  | 24 | 14100 | 174 | 1500 | 950 | 34 | 370 |  |  |  |  |  |  |  | 
COc1ccc2c3c4c(c5c(ccc6ccn(C)c65)c3n(CCCN3CCN(C)CC3)c2c1)C(=O)NC4=O |  |  | 14 | 2930 | 11600 | 1230 | 450 | 95 | 900 |  |  |  |  |  |  |  | 
Cn1ccc2ccc3c4[nH]c5c(CCN6CCNCC6)cccc5c4c4c(c3c21)C(=O)NC4=O |  |  | 15 | 12900 | 301 | 2030 | 1040 | 49 | 1110 |  |  |  |  |  |  |  | 
COc1ccc2c(c1)[nH]c1c3ccc4ccn(C)c4c3c3c(c21)C(=O)NC3=O | 90% | 97% | 6 | > 20000 |  | 112 | 1800 | 53 | 1090 | 2.6 |  |  |  |  |  |  | 
Cn1ccc2ccc3c4[nH]c5c(CCN6CCC(C(N)=O)CC6)cccc5c4c4c(c3c21)C(=O)NC4=O | 52% | 55% | 5 | 5890 | 25 | 796 | 1000 | 51 | 1350 | 1.9 | 2.2 |  |  |  |  |  | 
COc1ccc2c3c4c(c5c(ccc6ccn(C)c65)c3n(CCN[C@H]3CC[C@H](O)CC3)c2c1)C(=O)NC4=O | 67% |  | 23 | 18000 | 1170 | 902 | 890 | 63 | 1050 |  | 2 | 7800 (≈ 15.3 mM) |  | 95 | 2 | 7800 (≈ 15.3 mM) | 
COc1cc2c3[nH]c4ccccc4c3c3c(c2c2c1ccn2C)C(=O)NC3=O | 71% | 86% |  | 13200 |  |  | 1130 | 54 | 710 | 1.2 | 2.2 |  |  |  |  |  | 35
Cn1ccc2ccc3c4[nH]c5c(CCN6CCC(O)CC6)cccc5c4c4c(c3c21)C(=O)NC4=O.O=C(O)C(F)(F)F |  |  |  |  |  |  |  |  |  | 1.8 |  |  |  |  |  |  | 
COc1ccc2c3c4c(c5c(ccc6ccn(C)c65)c3n(CCCN3CCOCC3)c2c1)C(=O)NC4=O |  |  | 21 | > 20000 | > 20000 | 716 | 1690 | 69 | 1630 |  |  |  |  |  |  |  | 
COC(=O)C1CCN(CCc2cccc3c2[nH]c2c4ccc5ccn(C)c5c4c4c(c32)C(=O)NC4=O)CC1 |  |  | 13 | > 20000 | 81 | 972 | > 10000 | 47 | > 10000 |  |  |  |  |  |  |  | 
